Test results published in patent US11261185B2, “Bicyclic heterocyclic derivatives” (Merck Patent GmbH, priority 2015, dated 2022).

Test system: PDH-E1 alpha (pSer300) in HEK293T cells
Assay: Cellular immunofluorescence assay for compound activities (PDH-E1 alpha pSer300)
Assay type: cell-based, human
Details: 5 hours incubation, Anti-PDH-E1 alpha (pSer300) immunofluorescence, read-out: IC50 (cell data)
Procedure: Cellular Assay for Determination of Compound Activities
Compound activities were determined in a cellular immunofluorescence assay. Human HEK293T cells were seeded into black 384-well plates with clear bottom and grown overnight.
Next day, test compounds were added to the wells and the plates incubated for 5 hours. Following this, cells were fixed with formaldehyde, permeabilised and blocked. The primary antibody, Anti-PDH-E1 alpha (pSer300), AP1064 (Merck Millipore) was added and incubated overnight in the plate wells. Next, cells were washed and the seconday antibody, Alexa Fluor 488, goat anti-rabbit ab (A-11008, Invitrogen) was added together with Hoechst 33258 (H3569, Invitrogen) and incubated for 1 hour in the plate wells. Finally, cells were washed and the plates were measured on the laser scanning cytometer acumen hci (TTpLabtech).
The raw data were normalized against a pharmacological inhibitor control and dose response curves were generated by plotting the percent effect values using the software package Genedata screener (Genedata).

Compound `C[C@@](O)(C(=O)N1CCc2c(ncn2-c2ccc(Cl)cc2)C1)C(F)(F)F` [Compound A45, (R)-1-[1-(4-Chloro-phenyl)-1,4,6,7-tetrahydro-imidazo[4,5-c]pyridin-5-yl]-3,3,3-trifluoro-2-hydroxy-2-methyl-propan-1-one] has an IC50 of 3 to 50 µM.

For `C[C@@](O)(C(=O)N1CCc2c(ncn2-c2ccc(F)cc2)C1)C(F)(F)F` [Compound A44, (R)-3,3,3-Trifluoro-1-[1-(4-fluoro-phenyl)-1,4,6,7-tetrahydro-imidazo[4,5-c]pyridin-5-yl]-2-hydroxy-2-methyl-propan-1-one], the IC50 was 3 to 50 µM.
